Numbers after ± are expanded uncertainties.
How the values were obtained:
[1] = Liquid, Ebulliometric method (Recirculating still)
[2] = xn = mol fraction of the nth substance listed; details: 101 kPa, Liquid

C1C[C@@H]2[C@@H]3CC[C@@H](C3)[C@@H]2C1 [endo-tetrahydrodicyclopentadiene]
[1]
Details | vapor or sublimation pressure [kPa]
344.02 K | 2 ± 0.2
358.17 K | 3.5 ± 0.2
367.23 K | 5 ± 0.2
384.68 K | 10 ± 0.2
396.77 K | 15 ± 0.2
405.51 K | 20 ± 0.2
412.5 K | 25 ± 0.2
418.51 K | 30 ± 0.2
423.84 K | 35 ± 0.2
428.42 K | 40 ± 0.2
432.64 K | 45 ± 0.2
436.48 K | 50 ± 0.2
440.06 K | 55 ± 0.2
443.43 K | 60 ± 0.2
446.4 K | 65 ± 0.2
451.93 K | 75 ± 0.2
454.45 K | 80 ± 0.2
456.82 K | 85 ± 0.2
458.86 K | 90 ± 0.2
460.9 K | 95 ± 0.2
462.76 K | 100 ± 0.2
463.6 K | 101.6 ± 0.2

C1C[C@@H]2[C@@H]3CC[C@@H](C3)[C@@H]2C1 [endo-tetrahydrodicyclopentadiene] + C1C[C@@H]2[C@H]3CC[C@H](C3)[C@@H]2C1
[2]
Details | kinematic viscosity, 288.15 K [m2/s] | kinematic viscosity, 298.15 K [m2/s] | kinematic viscosity, 308.15 K [m2/s] | kinematic viscosity, 318.15 K [m2/s] | mass density, 288.15 K [kg/m3] | mass density, 298.15 K [kg/m3] | mass density, 308.15 K [kg/m3] | mass density, 318.15 K [kg/m3]
x2 = 0.4028 | 6.06e-06 ± 1.6e-07 | 4.7e-06 ± 1.3e-07 | 3.67e-06 ± 1.1e-07 | 2.99e-06 ± 8.7e-08 | 954.39 ± 0.27 | 946.44 ± 0.29 | 938.48 ± 0.3 | 930.47 ± 0.32
x2 = 0.5145 | 5.23e-06 ± 1.5e-07 | 4.1e-06 ± 1.2e-07 | 3.23e-06 ± 9.4e-08 | 2.67e-06 ± 7.8e-08 | 951.54 ± 0.27 | 943.63 ± 0.29 | 935.68 ± 0.31 | 927.69 ± 0.32
x2 = 0.6017 | 4.62e-06 ± 1.3e-07 | 3.68e-06 ± 1.1e-07 | 2.96e-06 ± 8.6e-08 | 2.46e-06 ± 7.3e-08 | 949.22 ± 0.28 | 941.29 ± 0.29 | 933.37 ± 0.31 | 925.41 ± 0.33
x2 = 0.6956 | 4.18e-06 ± 1.2e-07 | 3.35e-06 ± 9.7e-08 | 2.72e-06 ± 8e-08 | 2.29e-06 ± 6.8e-08 | 946.72 ± 0.28 | 938.85 ± 0.3 | 930.9 ± 0.31 | 923 ± 0.33
x2 = 0.7966 | 3.86e-06 ± 1.1e-07 | 3.06e-06 ± 8.9e-08 | 2.49e-06 ± 7.3e-08 | 2.12e-06 ± 6.3e-08 | 944.23 ± 0.29 | 936.36 ± 0.3 | 928.49 ± 0.32 | 920.59 ± 0.33
x2 = 0.9069 | 3.47e-06 ± 1e-07 | 2.82e-06 ± 8.2e-08 | 2.31e-06 ± 6.8e-08 | 1.97e-06 ± 5.9e-08 | 941.57 ± 0.29 | 933.78 ± 0.31 | 925.9 ± 0.32 | 918.06 ± 0.34
x2 = 0.9933 | 3.18e-06 ± 9.2e-08 | 2.65e-06 ± 7.8e-08 | 2.22e-06 ± 6.6e-08 | 1.87e-06 ± 5.6e-08 | 939.58 ± 0.29 | 931.79 ± 0.31 | 923.99 ± 0.32 | 916.14 ± 0.34

C1C[C@@H]2[C@H]3CC[C@H](C3)[C@@H]2C1 [exo-tetrahydrodicyclopentadiene]
[1]
Details | vapor or sublimation pressure [kPa]
335.45 K | 2 ± 0.2
349.97 K | 3.5 ± 0.2
360.37 K | 5 ± 0.2
379.33 K | 10 ± 0.2
391.56 K | 15 ± 0.2
400.07 K | 20 ± 0.2
407.31 K | 25 ± 0.2
413.28 K | 30 ± 0.2
418.87 K | 35 ± 0.2
423.1 K | 40 ± 0.2
427.5 K | 45 ± 0.2
431.46 K | 50 ± 0.2
434.98 K | 55 ± 0.2
438.26 K | 60 ± 0.2
441.37 K | 65 ± 0.2
444.02 K | 70 ± 0.2
447.09 K | 75 ± 0.2
449.62 K | 80 ± 0.2
452.19 K | 85 ± 0.2
454.39 K | 90 ± 0.2
456.75 K | 95 ± 0.2
458.83 K | 100 ± 0.2
459.38 K | 101.4 ± 0.2
